# Data: paper PMC11968843, “Sulphostin-inspired N-phosphonopiperidones as selective covalent DPP8 and DPP9 inhibitors” (Nature Communications, 2025)
# Values joined by “and” are separate entries in the source; they are usually repeats but may differ in a detail not shown here. Equal entries are not always repeated.
# Tests used:
# DPP4 = target: T1, DPP4 (Homo sapiens, UniProt P27487); test: biochemical; format: biochemical
# T1 construct: purchased Proteros Biostructures GmbH, Germany
# Protocol: (§1) Enzyme activity of DPP4, DPP8, DPP9 (Proteros Biostructures GmbH, Germany) and PREP (Sigma Aldrich, USA) was determined by measuring the initial velocity of AMC release from the fluorogenic substrate GP-AMC (Sigma Aldrich, USA) using a Tecan Spark® 10 M multimode microplate reader (Tecan Group Ltd., Switzerland) in activity buffer (20 mM HEPES/KOH pH 7.3, 110 mM potassium acetate, 2 mM Mg acetate, 0.5 mM EGTA, 0.02% Tween 20, supplemented with 1 mM DTT) and a final volume of 20 μL for maximal 60 min at 30 °C. Prior to activity measurement, 10 nM enzyme was incubated for 45 min at 30 °C and gentle shaking with the inhibitor compounds in concentrations ranging from 0 to 100 μM. The compounds were dissolved in DMSO and diluted in activity buffer (final DMSO concentration: 1%). […] IC50 values were calculated using Graph-Pad Prism v10.2.3 using the equation: [Inhibitor] vs. response—Variable slope (four parameters). All measurements were performed in triplicates and error bars represent standard errors of the fit.
# HeLa wild-type cells [1] = test: Cell viability assay (MTT), inhibitor alone; format: cell-based
# Protocol: (§2) HeLa wild-type (HeLa Flp-In T-REx WT, kind gift from Prof. Matthias Hentze) and HeLa DPP9^KO cells (prepared in-house) were cultured in DMEM (ThermoFisher, USA) supplemented with 10% FBS (PAN Biotech, Germany), 2 mM L-Glutamin (ThermoFisher, USA) and 1% Penicillin/Streptomycin (100 U mL^−1 Penicillin and 100 µg mL^−1 Streptomycin, ThermoFisher, USA). Cells were seeded in 96-well flat-bottom cell culture plates (Greiner, Germany) at a concentration of 5 × 10^3 cells per well (37 °C and 5% CO2). The indicated concentration of Mitomycin C (MMC, Merck) was added to the cells 24 h after seeding, together with 10 µM of the indicated inhibitor. The inhibitors were refreshed every 24 h. Control cells were treated with DMSO.
# (§3) Cell viability was measured 72 hours after the MMC treatment. For this, the medium was removed and replaced with phenol-red free DMEM (ThermoFisher, USA) containing 0.5 mg mL^−1 MTT (Sigma Aldrich, USA). Cells were incubated for 30 min at 37 °C, 5% CO2. Subsequently, the medium was removed and replaced by DMSO. The plates were shaken on an orbital shaker for 20 min before measuring the MTT signal on a CARIOstar Plus microplate reader (BMT labtech, Germany). Each experiment was performed three times, each in triplicates.
# HeLa wild-type cells [2] = test: Cell viability assay (MTT), co-treatment with Mitomycin C; format: cell-based
# Protocol: as §2, §3
# DPP9 = DPP9 (Homo sapiens, UniProt Q86TI2); test: biochemical; format: biochemical; design: purchased Proteros Biostructures GmbH, Germany; details: GP-AMC 250 µM, 10 nM enzyme, 45 min pre-incubation at 30 °C; read-out: IC50 DPP9
# Protocol: as §1
# DPP8 = target: T2, DPP8 (Homo sapiens, UniProt Q6V1X1); test: biochemical; format: biochemical; details: GP-AMC 250 µM, 10 nM enzyme, 45 min pre-incubation at 30 °C; read-out: IC50 DPP8
# T2 construct: purchased Proteros Biostructures GmbH, Germany
# Protocol: as §1
# T1 sequence (P27487 whole entry): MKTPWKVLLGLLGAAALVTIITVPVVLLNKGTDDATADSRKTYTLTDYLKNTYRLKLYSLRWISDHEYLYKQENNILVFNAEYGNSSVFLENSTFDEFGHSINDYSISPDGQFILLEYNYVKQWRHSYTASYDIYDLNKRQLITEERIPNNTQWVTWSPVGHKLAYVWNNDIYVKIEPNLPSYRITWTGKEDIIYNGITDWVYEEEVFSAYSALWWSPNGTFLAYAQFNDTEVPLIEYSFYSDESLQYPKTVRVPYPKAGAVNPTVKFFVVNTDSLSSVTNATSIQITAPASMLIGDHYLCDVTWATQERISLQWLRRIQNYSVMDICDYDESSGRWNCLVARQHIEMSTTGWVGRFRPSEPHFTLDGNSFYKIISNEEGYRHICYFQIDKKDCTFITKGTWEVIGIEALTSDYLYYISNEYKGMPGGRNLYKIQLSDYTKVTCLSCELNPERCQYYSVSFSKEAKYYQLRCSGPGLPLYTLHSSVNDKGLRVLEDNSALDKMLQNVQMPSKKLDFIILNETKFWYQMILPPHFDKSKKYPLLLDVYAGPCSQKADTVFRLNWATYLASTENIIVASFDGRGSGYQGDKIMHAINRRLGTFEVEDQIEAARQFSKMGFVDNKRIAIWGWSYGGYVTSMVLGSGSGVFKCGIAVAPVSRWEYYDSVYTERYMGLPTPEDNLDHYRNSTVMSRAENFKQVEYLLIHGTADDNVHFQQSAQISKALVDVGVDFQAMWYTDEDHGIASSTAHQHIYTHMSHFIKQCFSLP
# T2 sequence (Q6V1X1 whole entry): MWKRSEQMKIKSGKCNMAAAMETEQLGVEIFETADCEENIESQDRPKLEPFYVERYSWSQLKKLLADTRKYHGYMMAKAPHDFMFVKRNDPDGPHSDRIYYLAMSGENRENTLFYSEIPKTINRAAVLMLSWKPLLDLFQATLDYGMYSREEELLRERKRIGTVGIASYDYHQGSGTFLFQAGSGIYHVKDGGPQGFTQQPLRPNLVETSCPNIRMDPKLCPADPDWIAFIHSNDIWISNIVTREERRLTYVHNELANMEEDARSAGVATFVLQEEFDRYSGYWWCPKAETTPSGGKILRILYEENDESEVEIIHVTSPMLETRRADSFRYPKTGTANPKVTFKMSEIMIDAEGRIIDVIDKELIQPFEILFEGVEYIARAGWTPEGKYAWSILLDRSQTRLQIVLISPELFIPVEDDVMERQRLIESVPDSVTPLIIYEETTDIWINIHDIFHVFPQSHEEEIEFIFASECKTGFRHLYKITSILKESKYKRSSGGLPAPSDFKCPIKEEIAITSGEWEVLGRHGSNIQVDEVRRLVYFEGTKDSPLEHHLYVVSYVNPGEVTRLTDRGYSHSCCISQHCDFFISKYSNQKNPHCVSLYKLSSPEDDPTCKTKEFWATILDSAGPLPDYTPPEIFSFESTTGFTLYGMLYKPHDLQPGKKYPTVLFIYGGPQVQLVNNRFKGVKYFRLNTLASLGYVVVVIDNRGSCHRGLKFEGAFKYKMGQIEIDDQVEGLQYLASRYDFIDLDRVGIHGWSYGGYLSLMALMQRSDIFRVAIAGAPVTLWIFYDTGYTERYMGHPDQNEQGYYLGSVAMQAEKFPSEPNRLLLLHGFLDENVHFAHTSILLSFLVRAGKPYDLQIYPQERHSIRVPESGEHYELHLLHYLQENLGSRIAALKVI
# DPP9, sequence (Q86TI2 whole entry): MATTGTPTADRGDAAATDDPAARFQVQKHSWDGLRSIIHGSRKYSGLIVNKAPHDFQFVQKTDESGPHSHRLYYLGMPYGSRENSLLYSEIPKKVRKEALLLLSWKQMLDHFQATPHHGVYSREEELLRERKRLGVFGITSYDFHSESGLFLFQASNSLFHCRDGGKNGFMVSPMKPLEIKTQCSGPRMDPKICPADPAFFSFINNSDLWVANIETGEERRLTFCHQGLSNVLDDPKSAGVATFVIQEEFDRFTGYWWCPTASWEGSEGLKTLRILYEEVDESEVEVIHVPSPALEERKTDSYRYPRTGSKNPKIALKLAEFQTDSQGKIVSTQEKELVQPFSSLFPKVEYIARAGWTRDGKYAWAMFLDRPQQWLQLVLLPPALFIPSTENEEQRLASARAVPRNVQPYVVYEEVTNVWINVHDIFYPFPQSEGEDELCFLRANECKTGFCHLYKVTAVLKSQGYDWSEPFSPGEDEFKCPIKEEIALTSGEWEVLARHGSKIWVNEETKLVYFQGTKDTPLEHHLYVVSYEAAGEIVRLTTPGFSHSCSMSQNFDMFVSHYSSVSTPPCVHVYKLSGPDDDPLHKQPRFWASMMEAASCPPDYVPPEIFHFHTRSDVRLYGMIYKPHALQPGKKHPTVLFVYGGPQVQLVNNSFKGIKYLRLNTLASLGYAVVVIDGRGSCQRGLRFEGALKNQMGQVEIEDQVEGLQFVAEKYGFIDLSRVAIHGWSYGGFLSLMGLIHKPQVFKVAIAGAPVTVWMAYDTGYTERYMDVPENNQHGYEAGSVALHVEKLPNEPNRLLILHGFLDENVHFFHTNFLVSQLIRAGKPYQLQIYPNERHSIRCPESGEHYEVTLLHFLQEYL
smiles,measurement,setting,value
"CC(C)[C@H](N)C(=O)N1CCC[C@H]1B(O)O [VbP, Val-boroPro, reference compound]",DPP4 activity [%],DPP4; c 1.6 nM,67.4885% and 113.658% and 85.6002%
same,DPP4 activity [%],DPP4; c 3.1 nM,70.6772% and 79.559% and 93.9074%
same,DPP4 activity [%],DPP4; c 6.3 nM,51.4161% and 71.0555% and 74.1702%
same,DPP4 activity [%],DPP4; c 25 nM,4.534% and 5.3397% and 4.7469%
same,DPP4 activity [%],DPP4; c 50 nM,3.474% and 3.265% and 3.283%
same,DPP4 activity [%],DPP4; c 100 nM,2.2772% and 2.383% and 2.483%
N[C@@H](CC(=O)N1CCn2c(nnc2C(F)(F)F)C1)Cc1cc(F)c(F)cc1F [Sitagliptin],Cell viability normalized to mock treated cells + 0 µM MMC,"HeLa wild-type cells [1]; 0 µM MMC, individual replicate values (Supplementary Figure 11a)",87.835% (2×) and 113.478% (2×) and 105.575% (2×) and 118.346% (2×) and 103.264% (2×) and 91.1179% (2×) and 93.7454% (2×) and 87.0346% (2×) and 95.6216% (2×)
same,95% confidence interval of difference,"HeLa wild-type cells [1]; Figure 5d S11a, Ctrl. [-MMC] vs. compound [-MMC], Tukey's multiple comparisons test","-8,338 to 12,86"
same,cell viability normalized for each condition seperately to corresponsing [-MMC +inhibitor] control,"HeLa wild-type cells [2]; +MMC co-treatment, individual replicate values (Supplementary Figure 11b)",57.6636% and 68.4041% and 71.5915% and 62.1849% and 65.8665% and 55.7127% and 55.3675% and 52.3411% and 61.9483%
same,95% confidence interval of difference,"HeLa wild-type cells [2]; Figure 5d S11a, + Ctrl. [+MMC] vs. compound [+MMC], Tukey's multiple comparisons test","-7,015 to 14,19"
same,95% confidence interval of difference,"HeLa wild-type cells [2]; Figure S11b, Ctrl. vs. compound, Uncorrected Fisher's LSD","-3,548 to 10,07"
same,effect on cell viability / sensitivity to MMC,"HeLa wild-type cells [2]; HeLa wild-type, 1 µM MMC + 10 µM inhibitor, 72 h",no additional effect
NC1CCCN(P(N)(=O)NS(=O)(=O)O)C1=O (centres unmarked) [WTC0260B],IC50,DPP9,6.26 µM
same,IC50,DPP8,27.9 µM
